Data published in PMC6704710, “Preclinical evaluation of 3D185, a novel potent inhibitor of FGFR1/2/3 and CSF-1R, in FGFR-dependent and macrophage-dominant cancer models” (Journal of Experimental & Clinical Cancer Research : CR, 2019).

What was measured:
Assay in all cases: Eurofins kinase panel
Assay type in all cases: biochemical
Details in all cases: read-out: Inhibition rate (%)
ALK(h) = target: T1, ALK(h) (Homo sapiens, UniProt Q9UM73)
T1 construct: purchased Eurofins (KinaseProfiler)

CDK1/cyclinB(h) = target: T2, CDK1/cyclinB(h) (Homo sapiens, UniProt P06493)
T2 construct: purchased Eurofins (KinaseProfiler)
T2 sequence (P06493 whole entry): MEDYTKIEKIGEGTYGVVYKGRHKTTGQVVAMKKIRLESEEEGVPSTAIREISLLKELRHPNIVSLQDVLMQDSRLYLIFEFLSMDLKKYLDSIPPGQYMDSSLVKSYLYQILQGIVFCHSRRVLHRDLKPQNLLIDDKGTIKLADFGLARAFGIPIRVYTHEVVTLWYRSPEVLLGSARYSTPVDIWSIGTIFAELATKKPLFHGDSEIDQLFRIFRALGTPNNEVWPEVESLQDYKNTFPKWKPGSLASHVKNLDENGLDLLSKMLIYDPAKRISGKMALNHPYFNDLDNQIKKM
T2 sequence (P14635 whole entry partner): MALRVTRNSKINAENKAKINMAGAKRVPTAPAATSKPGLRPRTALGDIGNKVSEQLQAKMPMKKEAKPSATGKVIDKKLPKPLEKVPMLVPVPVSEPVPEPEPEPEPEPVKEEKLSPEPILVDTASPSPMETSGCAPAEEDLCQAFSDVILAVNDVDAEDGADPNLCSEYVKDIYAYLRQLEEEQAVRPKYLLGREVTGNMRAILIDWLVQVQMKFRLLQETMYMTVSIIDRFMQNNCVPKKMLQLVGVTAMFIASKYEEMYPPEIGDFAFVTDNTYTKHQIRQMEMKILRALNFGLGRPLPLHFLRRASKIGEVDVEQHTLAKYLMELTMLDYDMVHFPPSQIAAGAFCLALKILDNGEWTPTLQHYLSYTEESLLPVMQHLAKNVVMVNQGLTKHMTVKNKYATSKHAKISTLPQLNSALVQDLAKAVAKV

CDK5/p25(h) = target: T3, CDK5/p25(h) (Homo sapiens, UniProt Q00535)
T3 construct: purchased Eurofins (KinaseProfiler)
T3 sequence (Q00535 whole entry): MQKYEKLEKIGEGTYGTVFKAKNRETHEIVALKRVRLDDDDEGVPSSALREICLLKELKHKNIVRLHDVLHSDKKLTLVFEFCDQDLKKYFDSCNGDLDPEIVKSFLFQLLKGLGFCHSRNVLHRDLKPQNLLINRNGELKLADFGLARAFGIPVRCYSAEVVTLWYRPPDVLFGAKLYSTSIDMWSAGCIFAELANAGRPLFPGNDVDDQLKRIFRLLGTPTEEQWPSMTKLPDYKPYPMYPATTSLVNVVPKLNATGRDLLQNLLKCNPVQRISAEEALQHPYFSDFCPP
T3 sequence (Q15078 99-307 partner limits assumed): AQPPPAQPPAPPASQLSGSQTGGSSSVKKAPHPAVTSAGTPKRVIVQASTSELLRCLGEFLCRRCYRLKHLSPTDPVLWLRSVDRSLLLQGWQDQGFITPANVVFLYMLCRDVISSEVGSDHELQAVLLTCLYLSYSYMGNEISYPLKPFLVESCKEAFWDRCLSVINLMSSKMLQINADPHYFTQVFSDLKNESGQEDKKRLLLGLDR

DDR1(h) = target: T4, DDR1(h) (Homo sapiens, UniProt Q08345)
T4 construct: purchased Eurofins (KinaseProfiler)
T4 sequence (Q08345 19-913): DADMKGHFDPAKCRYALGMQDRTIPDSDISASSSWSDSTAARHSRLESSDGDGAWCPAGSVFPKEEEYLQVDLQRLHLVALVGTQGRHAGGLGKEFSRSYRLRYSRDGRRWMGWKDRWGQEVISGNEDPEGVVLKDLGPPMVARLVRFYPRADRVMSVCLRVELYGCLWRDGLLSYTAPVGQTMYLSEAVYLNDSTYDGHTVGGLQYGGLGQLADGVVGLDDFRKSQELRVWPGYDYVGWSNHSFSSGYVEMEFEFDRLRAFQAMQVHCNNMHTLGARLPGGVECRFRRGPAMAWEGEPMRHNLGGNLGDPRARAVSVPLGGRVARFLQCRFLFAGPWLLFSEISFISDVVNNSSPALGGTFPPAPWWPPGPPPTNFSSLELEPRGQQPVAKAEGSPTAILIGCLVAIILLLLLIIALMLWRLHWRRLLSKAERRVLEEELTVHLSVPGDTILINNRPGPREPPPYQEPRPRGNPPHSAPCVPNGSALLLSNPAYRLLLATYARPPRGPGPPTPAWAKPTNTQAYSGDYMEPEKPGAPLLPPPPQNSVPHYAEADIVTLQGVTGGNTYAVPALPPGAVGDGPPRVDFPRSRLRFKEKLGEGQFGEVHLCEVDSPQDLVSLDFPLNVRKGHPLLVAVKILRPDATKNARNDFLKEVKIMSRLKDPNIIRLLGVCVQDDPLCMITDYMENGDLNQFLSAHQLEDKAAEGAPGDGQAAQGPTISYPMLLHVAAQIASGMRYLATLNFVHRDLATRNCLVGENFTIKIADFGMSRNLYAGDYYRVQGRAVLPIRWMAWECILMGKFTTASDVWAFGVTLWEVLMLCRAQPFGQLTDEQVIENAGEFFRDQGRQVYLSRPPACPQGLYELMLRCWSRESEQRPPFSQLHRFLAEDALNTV

DYRK3(h) = target: T5, DYRK3(h) (Homo sapiens, UniProt O43781)
T5 construct: purchased Eurofins (KinaseProfiler)
T5 sequence (O43781 1-588): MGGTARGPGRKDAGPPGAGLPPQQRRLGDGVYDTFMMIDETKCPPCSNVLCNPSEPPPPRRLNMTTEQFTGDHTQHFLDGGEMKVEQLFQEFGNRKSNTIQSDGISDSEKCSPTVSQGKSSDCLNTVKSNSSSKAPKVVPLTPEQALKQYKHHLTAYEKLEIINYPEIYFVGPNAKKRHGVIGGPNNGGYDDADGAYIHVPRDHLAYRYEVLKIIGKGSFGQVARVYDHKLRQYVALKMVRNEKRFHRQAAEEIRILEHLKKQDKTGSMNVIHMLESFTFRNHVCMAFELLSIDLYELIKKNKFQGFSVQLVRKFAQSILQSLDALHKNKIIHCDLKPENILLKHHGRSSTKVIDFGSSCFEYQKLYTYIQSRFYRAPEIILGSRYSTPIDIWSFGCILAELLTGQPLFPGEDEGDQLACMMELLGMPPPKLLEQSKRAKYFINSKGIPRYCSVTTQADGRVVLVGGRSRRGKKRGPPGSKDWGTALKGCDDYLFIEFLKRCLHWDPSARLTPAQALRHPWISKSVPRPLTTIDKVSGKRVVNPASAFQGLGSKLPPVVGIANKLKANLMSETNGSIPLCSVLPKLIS

GRK3(h) = target: T6, GRK3(h) (Homo sapiens, UniProt P35626)
T6 construct: purchased Eurofins (KinaseProfiler)
T6 sequence (P35626 1-688): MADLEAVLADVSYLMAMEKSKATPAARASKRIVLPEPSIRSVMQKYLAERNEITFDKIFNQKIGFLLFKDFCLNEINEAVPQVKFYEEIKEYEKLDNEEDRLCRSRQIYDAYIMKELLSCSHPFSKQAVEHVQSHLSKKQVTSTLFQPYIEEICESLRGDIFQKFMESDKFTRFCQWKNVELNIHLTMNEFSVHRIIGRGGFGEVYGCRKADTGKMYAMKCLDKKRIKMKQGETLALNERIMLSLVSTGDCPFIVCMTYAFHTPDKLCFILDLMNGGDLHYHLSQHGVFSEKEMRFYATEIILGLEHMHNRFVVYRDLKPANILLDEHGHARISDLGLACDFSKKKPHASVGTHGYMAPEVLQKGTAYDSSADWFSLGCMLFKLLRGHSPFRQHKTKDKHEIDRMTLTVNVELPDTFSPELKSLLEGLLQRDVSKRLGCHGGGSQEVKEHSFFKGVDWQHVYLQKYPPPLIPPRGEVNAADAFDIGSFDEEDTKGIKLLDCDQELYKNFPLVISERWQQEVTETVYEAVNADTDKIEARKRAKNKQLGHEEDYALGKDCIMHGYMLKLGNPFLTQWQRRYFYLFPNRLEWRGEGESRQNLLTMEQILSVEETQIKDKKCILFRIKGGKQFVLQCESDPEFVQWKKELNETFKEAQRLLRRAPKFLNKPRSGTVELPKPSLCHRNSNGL

IRE1(h) = target: T7, IRE1(h) (Homo sapiens, UniProt O75460)
T7 construct: purchased Eurofins (KinaseProfiler)
T7 sequence (O75460 19-977): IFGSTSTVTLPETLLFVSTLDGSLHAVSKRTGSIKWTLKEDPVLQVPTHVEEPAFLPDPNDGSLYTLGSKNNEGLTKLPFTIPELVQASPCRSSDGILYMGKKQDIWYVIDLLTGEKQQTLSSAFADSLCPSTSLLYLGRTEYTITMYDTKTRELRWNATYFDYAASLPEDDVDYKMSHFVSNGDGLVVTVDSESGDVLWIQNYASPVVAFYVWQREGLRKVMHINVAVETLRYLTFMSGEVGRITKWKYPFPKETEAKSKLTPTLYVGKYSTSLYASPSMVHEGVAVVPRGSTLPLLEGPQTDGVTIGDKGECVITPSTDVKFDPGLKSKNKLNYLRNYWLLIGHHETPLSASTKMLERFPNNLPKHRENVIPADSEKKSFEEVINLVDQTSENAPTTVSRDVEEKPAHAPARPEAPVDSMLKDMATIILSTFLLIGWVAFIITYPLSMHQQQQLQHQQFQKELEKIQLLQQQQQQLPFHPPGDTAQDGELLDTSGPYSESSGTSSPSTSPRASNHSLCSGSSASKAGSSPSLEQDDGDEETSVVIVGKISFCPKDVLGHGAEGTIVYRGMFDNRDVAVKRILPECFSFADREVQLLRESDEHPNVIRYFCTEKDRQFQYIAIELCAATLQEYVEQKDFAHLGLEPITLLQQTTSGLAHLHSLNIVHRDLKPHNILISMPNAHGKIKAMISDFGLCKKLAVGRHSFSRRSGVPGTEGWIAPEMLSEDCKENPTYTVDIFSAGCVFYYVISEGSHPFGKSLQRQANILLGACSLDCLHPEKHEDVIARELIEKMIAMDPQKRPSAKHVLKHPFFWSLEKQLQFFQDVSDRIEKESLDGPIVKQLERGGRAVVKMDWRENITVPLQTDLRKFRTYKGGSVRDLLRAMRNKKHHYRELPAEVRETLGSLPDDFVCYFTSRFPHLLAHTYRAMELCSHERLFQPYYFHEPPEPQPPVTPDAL

PAK3(h) = target: T8, PAK3(h) (Homo sapiens, UniProt O75914)
T8 construct: purchased Eurofins (KinaseProfiler)
T8 sequence (O75914 whole entry): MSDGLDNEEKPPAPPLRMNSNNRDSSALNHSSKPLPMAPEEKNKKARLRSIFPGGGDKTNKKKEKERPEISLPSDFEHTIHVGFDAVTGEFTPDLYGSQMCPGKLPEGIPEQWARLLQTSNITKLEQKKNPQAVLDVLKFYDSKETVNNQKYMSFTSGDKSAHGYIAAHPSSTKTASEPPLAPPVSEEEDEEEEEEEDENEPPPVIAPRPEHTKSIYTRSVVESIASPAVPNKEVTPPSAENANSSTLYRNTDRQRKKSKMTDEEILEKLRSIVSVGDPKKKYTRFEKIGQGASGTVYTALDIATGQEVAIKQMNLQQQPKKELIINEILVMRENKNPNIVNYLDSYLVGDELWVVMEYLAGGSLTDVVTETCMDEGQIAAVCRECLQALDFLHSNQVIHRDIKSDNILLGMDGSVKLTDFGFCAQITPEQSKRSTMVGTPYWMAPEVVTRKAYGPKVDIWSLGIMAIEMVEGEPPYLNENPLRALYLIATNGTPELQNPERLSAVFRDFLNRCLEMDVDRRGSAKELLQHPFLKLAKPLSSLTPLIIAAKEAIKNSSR

Ron(h) = target: T9, Ron(h) (Homo sapiens, UniProt Q04912)
T9 construct: purchased Eurofins (KinaseProfiler)
T9 sequence (Q04912 25-1400): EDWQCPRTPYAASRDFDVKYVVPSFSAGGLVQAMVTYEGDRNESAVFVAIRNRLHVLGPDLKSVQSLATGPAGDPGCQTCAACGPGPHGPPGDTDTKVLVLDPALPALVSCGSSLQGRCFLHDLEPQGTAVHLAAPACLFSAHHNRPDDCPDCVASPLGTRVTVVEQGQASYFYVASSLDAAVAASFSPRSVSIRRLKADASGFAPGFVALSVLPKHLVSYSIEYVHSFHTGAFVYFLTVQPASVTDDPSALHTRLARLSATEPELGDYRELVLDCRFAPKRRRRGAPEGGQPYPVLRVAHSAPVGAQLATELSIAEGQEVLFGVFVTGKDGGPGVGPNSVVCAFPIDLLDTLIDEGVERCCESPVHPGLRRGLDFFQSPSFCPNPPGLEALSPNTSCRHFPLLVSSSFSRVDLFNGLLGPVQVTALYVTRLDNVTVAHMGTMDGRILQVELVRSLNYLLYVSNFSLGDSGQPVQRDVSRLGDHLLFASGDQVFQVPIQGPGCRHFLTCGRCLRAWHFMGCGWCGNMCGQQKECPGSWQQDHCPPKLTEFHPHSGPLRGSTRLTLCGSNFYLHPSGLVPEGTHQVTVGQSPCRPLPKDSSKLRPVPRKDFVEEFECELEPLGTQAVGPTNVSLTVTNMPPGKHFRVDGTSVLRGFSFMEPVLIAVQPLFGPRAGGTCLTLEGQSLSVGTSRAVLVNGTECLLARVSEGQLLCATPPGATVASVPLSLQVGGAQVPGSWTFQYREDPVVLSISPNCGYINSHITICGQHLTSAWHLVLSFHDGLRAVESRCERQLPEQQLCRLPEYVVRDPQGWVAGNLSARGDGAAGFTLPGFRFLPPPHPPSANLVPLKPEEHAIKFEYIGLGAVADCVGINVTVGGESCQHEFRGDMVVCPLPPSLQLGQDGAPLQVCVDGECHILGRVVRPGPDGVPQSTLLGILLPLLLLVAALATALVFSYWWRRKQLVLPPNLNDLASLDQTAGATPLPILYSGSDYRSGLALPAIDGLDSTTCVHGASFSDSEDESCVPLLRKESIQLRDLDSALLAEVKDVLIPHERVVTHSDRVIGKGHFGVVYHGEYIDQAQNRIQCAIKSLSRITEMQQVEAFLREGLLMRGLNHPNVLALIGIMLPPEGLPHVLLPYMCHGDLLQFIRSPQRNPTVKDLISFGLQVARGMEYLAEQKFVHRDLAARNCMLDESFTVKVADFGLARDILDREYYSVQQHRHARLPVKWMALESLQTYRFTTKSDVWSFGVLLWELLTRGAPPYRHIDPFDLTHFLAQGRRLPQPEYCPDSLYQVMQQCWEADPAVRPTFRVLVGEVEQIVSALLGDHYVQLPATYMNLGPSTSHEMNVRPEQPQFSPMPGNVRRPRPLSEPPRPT

Tec(h) activated = target: T10, Tec(h) activated (Homo sapiens, UniProt P42680)
T10 construct: purchased Eurofins (KinaseProfiler)
T10 sequence (P42680 1-631): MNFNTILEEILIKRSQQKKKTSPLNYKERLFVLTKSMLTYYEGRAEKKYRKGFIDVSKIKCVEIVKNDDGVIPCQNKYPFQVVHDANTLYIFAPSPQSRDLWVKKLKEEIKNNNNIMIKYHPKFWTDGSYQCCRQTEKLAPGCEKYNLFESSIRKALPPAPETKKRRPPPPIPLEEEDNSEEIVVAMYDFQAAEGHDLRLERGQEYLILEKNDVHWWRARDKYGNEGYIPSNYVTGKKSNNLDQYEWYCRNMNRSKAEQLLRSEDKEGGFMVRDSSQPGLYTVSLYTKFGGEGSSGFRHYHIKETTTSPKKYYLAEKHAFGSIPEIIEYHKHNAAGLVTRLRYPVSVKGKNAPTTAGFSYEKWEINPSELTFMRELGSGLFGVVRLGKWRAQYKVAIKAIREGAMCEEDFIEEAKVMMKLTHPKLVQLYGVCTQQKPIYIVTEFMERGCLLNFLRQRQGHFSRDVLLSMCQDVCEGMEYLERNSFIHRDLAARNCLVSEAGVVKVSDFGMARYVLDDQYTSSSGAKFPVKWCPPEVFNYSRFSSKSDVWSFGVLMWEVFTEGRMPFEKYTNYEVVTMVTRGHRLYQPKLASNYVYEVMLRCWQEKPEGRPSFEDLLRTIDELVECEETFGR

**Q.** What does the source list for `COc1cc(OC)c(Cl)c(-c2ccc3c(NC(=O)c4ccc(N5CCNC(C)(C)C5)cc4)n[nH]c3n2)c1Cl` [3D185]?
**A.** inhibition at 0.01 µM (ALK(h); 10 nM): -1%; inhibition at 0.1 µM (ALK(h); 100 nM): 35%; inhibition at 1 µM (ALK(h); 1000 nM): 82%; inhibition at 0.01 µM (CDK1/cyclinB(h); 10 nM): 0%; inhibition at 0.1 µM (CDK1/cyclinB(h); 100 nM): 2%; inhibition at 1 µM (CDK1/cyclinB(h); 1000 nM): -11%; inhibition at 0.01 µM (CDK5/p25(h); 10 nM): 10%; inhibition at 0.1 µM (CDK5/p25(h); 100 nM): 4%; inhibition at 1 µM (CDK5/p25(h); 1000 nM): 3%; inhibition at 0.01 µM (DDR1(h); 10 nM): 6%; inhibition at 0.1 µM (DDR1(h); 100 nM): 27%; inhibition at 1 µM (DDR1(h); 1000 nM): 64%; inhibition at 0.01 µM (DYRK3(h); 10 nM): -24%; inhibition at 0.1 µM (DYRK3(h); 100 nM): -31%; inhibition at 1 µM (DYRK3(h); 1000 nM): -27%; inhibition at 0.01 µM (GRK3(h); 10 nM): 6%; inhibition at 0.1 µM (GRK3(h); 100 nM): 3%; inhibition at 1 µM (GRK3(h); 1000 nM): 3%; inhibition at 0.01 µM (IRE1(h); 10 nM): -1%; inhibition at 0.1 µM (IRE1(h); 100 nM): -13%; inhibition at 1 µM (IRE1(h); 1000 nM): 6%; inhibition at 0.01 µM (PAK3(h); 10 nM): -1%; inhibition at 0.1 µM (PAK3(h); 100 nM): -3%; inhibition at 1 µM (PAK3(h); 1000 nM): 7%; inhibition at 0.01 µM (Ron(h); 10 nM): -16%; inhibition at 0.1 µM (Ron(h); 100 nM): -10%; inhibition at 1 µM (Ron(h); 1000 nM): 28%; inhibition at 0.01 µM (Tec(h) activated; 10 nM): 3%; inhibition at 0.1 µM (Tec(h) activated; 100 nM): 9%; inhibition at 1 µM (Tec(h) activated; 1000 nM): 23%
